One assay deals with T1, human V1a receptor (Homo sapiens, UniProt P37288).
T1 construct: expressed in transfected cells; host or cells: CHO K1 (ATCC), also stably transfected with a modified aequorin
In words: Cellular in vitro assay for determining vasopressin receptor activity (V1a, aequorin luminescence). The assay is classed as cell-based. As to conditions: for IC50: CHO cell line transfected with the human V1a receptor, [Arg8]-vasopressin at EC50 concentration, read-out: IC50 hV1a; for ratio IC50 hV2/hV1a: selectivity ratio of IC50 hV2 to IC50 hV1a. On the procedure: (§1) B-1. Cellular In Vitro Assay for Determining Vasopressin Receptor Activity
(§2) The identification of agonists and antagonists of the V1a and V2 vasopressin receptors from humans, rats and dogs as well as the quantification of the activity of the compounds of the invention is carried out using recombinant cell lines. These cell lines originally derive from a hamster's ovary epithelial cell (Chinese Hamster Ovary, CHO K1, ATCC: American Type Culture Collection, Manassas, Va. 20108, USA). The test cell lines constitutively express the human, rat or dog V1a or V2 receptors. In case of the Gαq-coupled V1a receptors, cells are also stably transfected with a modified form of the calcium-sensitive photoproteins aequorin (human and rat V1a) or obelin (dog V1a), which, after reconstitution with the cofactor coelenterazine, emit light when there are increases in free calcium concentrations [Rizzuto R, Simpson A W, Brini M, Pozzan T, Nature 358, 325-327 (1992); Illarionov B A, Bondar V S, Illarionova V A, Vysotski E S, Gene 153 (2), 273-274 (1995)]. The resulting vasopressin receptor cells react to stimulation of the recombinantly expressed V1a receptors by intracellular release of calcium ions, which can be quantified by the resulting photoprotein luminescence. The Gs-coupled V2 receptors are stably transfected into cell lines expressing the gene for firefly luciferase under control of a CRE-responsible promoter. Activation of V2 receptors induces the activation of the CRE-responsive promoter via cAMP increase, thereby inducing the expression of firefly luciferase. The light emitted by photoproteins of V1a cell lines as well as the light emitted by firefly luciferase of V2 cell lines corresponds to the activation or inhibition of the respective vasopressin receptor. The bioluminescence of the cell lines is detected using a suitable luminometer [Milligan G, Marshall F, Rees S, Trends in Pharmacological Sciences 17, 235-237 (1996)].
Vasopressin V1a receptor cell lines:
On the day before the assay, the cells are plated out in culture medium (DMEM/F12, 2% FCS, 2 mM glutamine, 10 mM HEPES, 5 μg/ml coelenterazine) in 384-well microtiter plates and kept in a cell incubator (96% humidity, 5% v/v CO2, 37° C.). On the day of the assay, test compounds in various concentrations are placed for 10 minutes in the wells of the microtiter plate before the agonist [Arg^8]-vasopressin at EC50 concentration is added. The resulting light signal is measured immediately in a luminometer.
(§3) Table 1A below lists individual IC50 values for the compounds of the invention (including racemic mixtures as well as separated enantiomers) that were obtained from cell lines transfected with the human V1a or V2 receptor: […]

A further assay deals with T2, human V2 receptor (Homo sapiens, UniProt P30518).
T2 construct: expressed in transfected cells; host or cells: CHO K1 (ATCC) expressing firefly luciferase under a CRE-responsive promoter
In words: Cellular in vitro assay for determining vasopressin receptor activity (V2, CRE-luciferase). The assay is classed as cell-based. The note with it: CHO cell line transfected with the human V2 receptor; [Arg8]-vasopressin at EC50 concentration; read-out: IC50 hV2. On the procedure: as §1, §2
Vasopressin V2 receptor cell lines:
On the day before the assay, the cells are plated out in culture medium (DMEM/F12, 2% FCS, 2 mM glutamine, 10 mM HEPES) in 384-well microtiter plates and kept in a cell incubator (96% humidity, 5% v/v CO2, 37° C.). On the day of the assay, test compounds in various concentrations and the agonist [Arg^8]-vasopressin at EC50 concentration are added together to the wells, and plates are incubated for 3 hours in a cell incubator. Upon addition of the cell lysis reagent Triton™ and the substrate luciferin, luminescence of firefly luciferase is measured in a luminometer.
as §3

As a reminder, the IC50 is the concentration that inhibits the measured activity by half.

T2 sequence (P30518 whole entry): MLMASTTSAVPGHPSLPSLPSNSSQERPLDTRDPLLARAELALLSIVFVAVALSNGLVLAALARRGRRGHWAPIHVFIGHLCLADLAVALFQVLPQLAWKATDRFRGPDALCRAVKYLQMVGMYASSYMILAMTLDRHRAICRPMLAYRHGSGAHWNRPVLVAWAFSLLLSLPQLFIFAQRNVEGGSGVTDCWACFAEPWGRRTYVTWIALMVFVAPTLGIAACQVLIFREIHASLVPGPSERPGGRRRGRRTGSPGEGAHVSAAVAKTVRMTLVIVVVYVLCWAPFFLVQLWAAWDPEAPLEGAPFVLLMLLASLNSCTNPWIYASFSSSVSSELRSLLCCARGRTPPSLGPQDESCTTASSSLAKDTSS
T1 sequence (P37288 whole entry): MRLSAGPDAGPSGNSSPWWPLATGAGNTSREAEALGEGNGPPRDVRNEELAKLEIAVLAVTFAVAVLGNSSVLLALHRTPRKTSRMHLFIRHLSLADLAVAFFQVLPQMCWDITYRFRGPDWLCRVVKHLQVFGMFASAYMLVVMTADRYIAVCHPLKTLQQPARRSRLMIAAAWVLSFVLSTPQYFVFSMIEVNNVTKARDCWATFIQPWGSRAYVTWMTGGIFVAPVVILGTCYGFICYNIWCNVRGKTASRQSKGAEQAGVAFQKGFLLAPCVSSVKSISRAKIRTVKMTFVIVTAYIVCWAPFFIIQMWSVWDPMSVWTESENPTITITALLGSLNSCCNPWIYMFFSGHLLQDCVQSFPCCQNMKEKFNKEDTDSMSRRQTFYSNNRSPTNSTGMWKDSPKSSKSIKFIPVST

With `CN1C(=O)CCC1c1nc(Cn2nc(-c3ccc(Cl)cc3)n(C[C@H](O)C(F)(F)F)c2=O)nn1CCC(F)(F)F` (mixture of isomers) [Example 130, 5-(4-Chlorophenyl)-2-({5-[1-methyl-5-oxopyrrolidin-2-yl]-1-(3,3,3-trifluoropropyl)-1H-1,2,4-triazol-3-yl}methyl)-4-[(2S)-3,3,3-trifluoro-2-hydroxypropyl]-2,4-dihydro-3H-1,2,4-triazol-3-one], on human V1a receptor, the IC50 was found to be 21 nM and the “ratio IC50 hV2/hV1a” value turned out to be 127.9. At human V2 receptor, the IC50 is 2680 nM.
The matching figures for `COc1ccccc1-n1nc(Cn2nc(-c3ccc(Cl)cc3)n(C[C@H](O)C(F)(F)F)c2=O)nc1C(C)OC(N)=O` (single isomer, unassigned) [Example 39]: 1.1 nM, 1.6 and 1.76 nM.
Consider `COc1ccccc1-n1nc(Cn2nc(-c3ccc(Cl)cc3)n(C[C@H](OC(N)=O)C(F)(F)F)c2=O)nc1C(C)OC(N)=O` (single isomer, unassigned) [Example 40], for which, at human V1a receptor, the IC50 stood at 5.86 nM and the “ratio IC50 hV2/hV1a” value was 1.1. Besides, at human V2 receptor, the IC50 came out at 6.35 nM.
For `COc1ccccc1-n1nc(Cn2nc(-c3ccc(Cl)cc3)n(C[C@H](O)C(F)(F)F)c2=O)nc1C(C)OC(N)=O` (single isomer, unassigned) [Example 41], in that order: 2.01 nM, 4.8 and 9.69 nM.
In the case of `COc1ccccc1-n1nc(Cn2nc(-c3ccc(Cl)cc3)n(C[C@H](OC(N)=O)C(F)(F)F)c2=O)nc1C(C)OC(N)=O` (single isomer, unassigned) [Example 42], on human V1a receptor, the IC50 is 1.08 nM and the “ratio IC50 hV2/hV1a” value came to 6.8. For the same compound, the IC50 at human V2 receptor stood at 7.37 nM.
The matching figures for `CC(N)c1nc(Cn2nc(-c3ccc(Cl)cc3)n(C[C@H](O)C(F)(F)F)c2=O)nn1-c1cccc(F)c1` (single isomer, unassigned) [Example 54]: 3.09 nM, 1.4 and 4.2 nM.
For `CC(N)c1nc(Cn2nc(-c3ccc(Cl)cc3)n(C[C@H](O)C(F)(F)F)c2=O)nn1-c1cccc(F)c1` (single isomer, unassigned) [Example 55], in that order: 18 nM, 1.4 and 26 nM.
The matching figures for `CC(N)c1nc(Cn2nc(-c3ccc(Cl)cc3)n(C[C@H](O)C(F)(F)F)c2=O)nn1-c1ccccc1Cl` (single isomer, unassigned) [Example 61]: 0.45 nM, 6.3 and 2.83 nM.
On to `CC(N)c1nc(Cn2nc(-c3ccc(Cl)cc3)n(C[C@H](O)C(F)(F)F)c2=O)nn1-c1ccccc1Cl` (single isomer, unassigned) [Example 62], for which, on human V1a receptor, the IC50 was determined as 0.97 nM and the “ratio IC50 hV2/hV1a” value is on record as 11.7. For the same compound, on human V2 receptor, the half-inhibitory concentration (IC50) turned out to be 11.4 nM.
For `CC(=O)NC(C)c1nc(Cn2nc(-c3ccc(Cl)cc3)n(C[C@H](O)C(F)(F)F)c2=O)nn1-c1ccccc1Cl` (single isomer, unassigned) [Example 65], in that order: 2.05 nM, 5.3 and 10.8 nM.
For `CC(=O)NC(C)c1nc(Cn2nc(-c3ccc(Cl)cc3)n(C[C@H](O)C(F)(F)F)c2=O)nn1-c1ccccc1Cl` (single isomer, unassigned) [Example 66], in that order: 3.75 nM, 14.0 and 52.5 nM.
For `CC(NS(C)(=O)=O)c1nc(Cn2nc(-c3ccc(Cl)cc3)n(C[C@H](O)C(F)(F)F)c2=O)nn1-c1ccccc1Cl` (single isomer, unassigned) [Example 68], in that order: 0.97 nM, 4.6 and 4.5 nM.
As to `CC(NS(C)(=O)=O)c1nc(Cn2nc(-c3ccc(Cl)cc3)n(C[C@H](O)C(F)(F)F)c2=O)nn1-c1ccccc1Cl` (single isomer, unassigned) [Example 69], the IC50 on human V1a receptor was determined as 0.7 nM; at human V2 receptor, 8.65 nM. At human V1a receptor, the “ratio IC50 hV2/hV1a” value was found to be 12.4.
`CN1C(=O)CCC1c1nc(Cn2nc(-c3ccc(Cl)cc3)n(C[C@H](O)C(F)(F)F)c2=O)nn1-c1ccccc1Cl` (single isomer, unassigned) [Example 71]: the results for the IC50 at human V1a receptor and on human V2 receptor were 0.7 nM and 13.8 nM, respectively. On human V1a receptor, the “ratio IC50 hV2/hV1a” value came out at 19.7.
For `CN1C(=O)CCC1c1nc(Cn2nc(-c3ccc(Cl)cc3)n(C[C@H](O)C(F)(F)F)c2=O)nn1-c1ccccc1Cl` (single isomer, unassigned) [Example 72], in that order: 0.67 nM, 6.63 nM and 9.9.
With `CC(NC(=O)C(F)(F)F)c1nc(Cn2nc(-c3ccc(Cl)cc3)n(C[C@H](O)C(F)(F)F)c2=O)nn1-c1ccccc1Cl` (single isomer, unassigned) [Example 74], at human V1a receptor, the IC50 came to 5.35 nM and the “ratio IC50 hV2/hV1a” value worked out at 3.4. Besides, the 50% inhibitory concentration (IC50) at human V2 receptor stood at 18 nM.
For `CC(NC(=O)C(F)(F)F)c1nc(Cn2nc(-c3ccc(Cl)cc3)n(C[C@H](O)C(F)(F)F)c2=O)nn1-c1ccccc1Cl` (single isomer, unassigned) [Example 75], in that order: 4.2 nM, 14.1 and 59 nM.
The matching figures for `CC(C)(C)OCC(NS(C)(=O)=O)c1nc(Cn2nc(-c3ccc(Cl)cc3)n(C[C@H](O)C(F)(F)F)c2=O)nn1-c1ccccc1Cl` (single isomer, unassigned) [Example 83]: 1.95 nM, 41.3 and 80.5 nM.
Consider `CC(C)(C)OCC(NS(C)(=O)=O)c1nc(Cn2nc(-c3ccc(Cl)cc3)n(C[C@H](O)C(F)(F)F)c2=O)nn1-c1ccccc1Cl` (single isomer, unassigned) [Example 84], for which the IC50 was determined as 4.75 nM on human V1a receptor and 44.5 nM at human V2 receptor. Moreover, the “ratio IC50 hV2/hV1a” value on human V1a receptor amounted to 9.4.
The matching figures for `CS(=O)(=O)NC(CO)c1nc(Cn2nc(-c3ccc(Cl)cc3)n(C[C@H](O)C(F)(F)F)c2=O)nn1-c1ccccc1Cl` (single isomer, unassigned) [Example 86]: 0.97 nM, 2 nM and 2.1.
The matching figures for `CS(=O)(=O)NC(CO)c1nc(Cn2nc(-c3ccc(Cl)cc3)n(C[C@H](O)C(F)(F)F)c2=O)nn1-c1ccccc1Cl` (single isomer, unassigned) [Example 87]: 2.25 nM, 35.5 nM and 15.8.
On to `CC(=O)NC(COC(C)(C)C)c1nc(Cn2nc(-c3ccc(Cl)cc3)n(C[C@H](O)C(F)(F)F)c2=O)nn1-c1ccccc1Cl` (single isomer, unassigned) [Example 89], for which, on human V1a receptor, the IC50 worked out at 3.45 nM and the “ratio IC50 hV2/hV1a” value is 37.4. On human V2 receptor, the IC50 amounted to 129 nM.
The matching figures for `CC(=O)NC(COC(C)(C)C)c1nc(Cn2nc(-c3ccc(Cl)cc3)n(C[C@H](O)C(F)(F)F)c2=O)nn1-c1ccccc1Cl` (single isomer, unassigned) [Example 90]: 12.5 nM, 392.0 and 4900 nM.
For `CC(=O)NC(CO)c1nc(Cn2nc(-c3ccc(Cl)cc3)n(C[C@H](O)C(F)(F)F)c2=O)nn1-c1ccccc1Cl` (single isomer, unassigned) [Example 92], in that order: 5.1 nM, 3.4 and 17.5 nM.

Source of the values: patent publication US20210253557A1, “SUBSTITUTED TRIAZOLE DERIVATIVES AND USES THEREOF” (Bayer Pharma Aktiengesellschaft, priority 2017, published 2021).
